Laboratory results reported in article PMC7460883, “Dual Substrate Specificity of the Rutinosidase from Aspergillus niger and the Role of Its Substrate Tunnel” (International Journal of Molecular Sciences, 2020).

Target: T1, AnRut (recombinant rutinosidase from Aspergillus niger) (Aspergillus niger, UniProt A0A6B9UJ04)
T1 construct: vector pPICZalphaA-RUT, secreted as fusion product by Pichia pastoris KM71H; crude culture medium, ca 66 kDa glycosylated (45 kDa deglycosylated), dimer
T1 sequence (A0A6B9UJ04 20-386): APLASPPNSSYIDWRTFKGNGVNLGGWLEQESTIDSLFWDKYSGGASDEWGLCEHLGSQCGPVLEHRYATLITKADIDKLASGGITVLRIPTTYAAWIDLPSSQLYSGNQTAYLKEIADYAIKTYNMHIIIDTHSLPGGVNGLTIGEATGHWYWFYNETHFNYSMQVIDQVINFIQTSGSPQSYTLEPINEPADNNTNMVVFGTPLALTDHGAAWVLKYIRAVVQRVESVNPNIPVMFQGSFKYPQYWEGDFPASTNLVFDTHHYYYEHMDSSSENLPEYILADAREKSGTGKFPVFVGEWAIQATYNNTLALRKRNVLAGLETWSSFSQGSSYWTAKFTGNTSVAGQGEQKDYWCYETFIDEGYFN
Experiment: transglycosylation (glycosyl donor), TLC / product isolation
Assay type: biochemical
Details: pH 3.5, 36 °C; crude culture medium with secreted recombinant enzyme; suspended substrate; acceptors 3-9

| SMILES | transglycosylation (glycosyl donor), TLC / product isolation |
| --- | --- |
| C[C@@H]1O[C@@H](OC[C@H]2O[C@@H](Oc3c(-c4ccc(O)c(O)c4)oc4cc(O)cc(O)c4c3=O)[C@H](O)[C@@H](O)[C@@H]2O)[C@H](O)[C@H](O)[C@H]1O [compound 1, rutin] | both AnRut activities, i.e., rutinosidase (with rutin donor) and glucosidase (with isoquercitrin donor) |
| O=c1c(O[C@@H]2O[C@H](CO)[C@@H](O)[C@H](O)[C@H]2O)c(-c2ccc(O)c(O)c2)oc2cc(O)cc(O)c12 [compound 2, isoquercitrin] | both AnRut activities, i.e., rutinosidase (with rutin donor) and glucosidase (with isoquercitrin donor) |
